Laboratory results as given in patent publication US6437002B1, “Agent for preventing and treating skin diseases” (Showa Denko K.K., priority 1998, dated 2002).

Legend:
[1] = Test (B): durability (activity duration) on storage; assay type: physicochemical; conditions: 0.5% in water (oil-soluble: emulsion with 2% Tween 80), stored at 40° C. for one month
Protocol: An ascorbic acid derivative was dissolved in water to have a concentration of 0.5% (in the case of an oil-soluble SF-621 US material, it was emulsion-dispersed in an ordinary manner by adding 2% of a surfactant Tween 80 (trademark)) and stored at 40° C. for one month. Then the residual amount of the derivative was measured by the HPLC method described later in the Examples. When the residual ratio was 90% or more, the evaluation was “+” and when it was less than 90%, the evaluation was “−”.
An ascorbic acid derivative was dissolved in water to have a concentration of 0.5% (in the case of an oil-soluble material, it was emulsion-dispersed in an ordinary manner by adding 2% of a surfactant Tween 80 (trademark)) and stored at 40° C. for one month. Then the residual amount of the derivative was measured by the HPLC method. When the residual ratio was 90% or more, the evaluation was “+” and when it was less than 90%, the evaluation was “−”.

[2] = test system: dorsum skin of hairless mouse; experiment: Test (A): skin permeability and ascorbic acid activity, H-type transverse diffusion cell; assay type: in vitro ADME; parameters: key: When an ascorbic acid transmitted through the skin was identified, the evaluation was “+”; when an ascorbic acid was not detected, the evaluation was “−”; When a peak on the order of a trace was confirmed, the evaluation was “+”; conditions: abraded hairless mouse skin, 37° C., 30 to 120 minutes
Protocol: The dorsum skin with corium of a 4- or 5-week-old hairless mouse was abraded and the skin abraded from the back of the hairless mouse was fixed in an H-type transverse diffusion cell. Then, 2 ml of DALBECCO PBS(−) was charged into the receiver-side cell and 2 ml of a specimen was charged into the donor-side cell. After incubation at 37° C. for from 30 to 120 minutes, 200 μl was sampled from the […] and 200 μl of DALBECCO PBS(−) was replenished. An ascorbic acid amount of the solution sampled was analyzed by the HPLC method described later in the Examples. When an ascorbic acid transmitted through the skin was detected and identified, the evaluation was “+” and when an ascorbic acid was not detected and identified, the evaluation was “−”. When a peak on the order of a trace was confirmed, the evaluation was “±”.
The dorsum skin with corium of a 4- or 5-week-old hairless mouse was abraded and the skin abraded from the back of the hairless mouse was fixed in an H-type transverse diffusion cell. Then, 2 ml of DALBECCO PBS(−) was charged into the receiver-side cell and 2 ml of a specimen was charged into the donor-side cell (in the case of an oil-soluble material, it was emulsion-dispersed in an ordinary manner by adding 2% of a surfactant Tween 80 (trademark)). After incubation at 37° C. for from 30 to 120 minutes, 200 μl was sampled from the […] and 200 μl of DALBECCO PBS (−) was replenished. An ascorbic acid amount of the solution sampled was analyzed by the HPLC method in the Examples. When an ascorbic acid transmitted through the skin was identified, the evaluation was “+” and when an ascorbic acid was not detected, the evaluation was “−” When a peak on the order of a trace was confirmed, the evaluation was […].

Molecule	Test (B): durability (residual ratio of the derivative by HPLC) [1]	Test (A): skin permeability and ascorbic acid activity (ascorbic acid transmitted through the skin, by HPLC) [2]
O=C1O[C@H]([C@@H](O)CO)C(O)=C1O[C@H]1O[C@H](CO)[C@@H](O)[C@H](O)[C@H]1O [L-Ascorbic acid-2-glucoside]	+ (When the residual ratio was 90% or more, the evaluation was “+”)	+
O=C1O[C@H]([C@@H](O)CO)C(O)=C1OP(=O)([O-])[O-].[Mg+2] [Magnesium L-ascorbic acid-2-phosphate]	+ (When the residual ratio was 90% or more, the evaluation was “+”)	
O=C1O[C@H]([C@@H](O)CO)C(O)=C1OP(=O)([O-])[O-].[K+].[K+] [Potassium L-ascorbic acid-2-phosphate]	+ (When the residual ratio was 90% or more, the evaluation was “+”)	+
O=C1O[C@H]([C@@H](O)CO)C(O)=C1OS(=O)(=O)[O-].[Na+] [Sodium L-ascorbic acid-2-sulfate, reference compound]	+ (When the residual ratio was 90% or more, the evaluation was “+”)	−
2-Palmitoyloxy-L-ascorbic acid-2-phosphate		+
O=C1O[C@H]([C@@H](O)CO)C(O)=C1OP(=O)([O-])[O-].[Na+].[Na+] [Sodium L-ascorbic acid-2-phosphate]	+ (When the residual ratio was 90% or more, the evaluation was “+”)	+
Cc1c(C)c2c(c(C)c1OP(=O)(O)OC1=C(O)[C@@H]([C@@H](O)CO)OC1=O)CC[C@@](C)(CCC[C@H](C)CCC[C@H](C)CCCC(C)C)O2 [Ascorbic acid tocopherolphosphate diester, reference compound]	+ (When the residual ratio was 90% or more, the evaluation was “+”)	−
